In patent publication US9212168B2 (priority 2011, dated 2015):

test system: HCV genotype 1a replicon; assay: HCV genotype 1a replicon assay (NS3 protease activity readout); format: cell-based, hepatitis C virus; settings: HCV genotype 1a replicon
Method in brief: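 Genotype 1a subgenomic replicon cells (APC89, Huh7.5) were treated with compound dose-responses in G418-free medium, 0.5% DMSO final, for 48 or 72 hours at 37° C. Lysate NS3/4a protease activity measured with 15 μM FRET substrate, 20 min at 37° C (ex 340/em 509 nm); EC50 by 4-parameter fit.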

Compound | Genotype 1a
CNC(=O)N1CCN(c2ccc(C(=O)Nc3ccc(-c4ccc(-c5c[nH]c([C@@H]6C[C@H](O)CN6C(=O)[C@@H](NC(=O)OC)C(C)C)n5)cc4)cc3)cn2)[C@H](C)C1 [Example 26-3] | B (B represents pEC50 between 8 and 9 (EC50 between 1 and 10 nM))
COC[C@H]1C[C@@H](c2nc(-c3ccc(-c4ccc(C(=O)Nc5ccc(N6CCN(C(=O)C(C)(C)C)C[C@H]6C)nc5)c(Cl)c4OC(F)(F)F)cc3)c[nH]2)N(C(=O)[C@@H](NC(=O)OC)C(C)C)C1 [Example 25-7] | B (B represents pEC50 between 8 and 9 (EC50 between 1 and 10 nM))
COC(=O)NC(C(=O)N1CC(F)CC1c1nc(-c2ccc(-c3cc(Cl)c(NC(=O)c4ccc(N5CCN(C(=O)C(C)(C)CO)CC5C)nc4)cc3OC(F)(F)F)cc2)c[nH]1)C1CCOCC1 (stereo not shown) [Example 29-4] | D (D represents pEC50>10 (EC50<0.1 nM))
COC(=O)N[C@H](C(=O)N1C[C@@H](C)C[C@H]1c1nc(-c2ccc(-c3cc(Cl)c(NC(=O)c4ccc(N5CCN(C(=O)C(C)(C)C)C[C@H]5C)nc4)cc3C(F)(F)F)cc2)c[nH]1)C1CCCCC1 [Example 19-8] | B (B represents pEC50 between 8 and 9 (EC50 between 1 and 10 nM))
CNC(=O)N1C[C@@H](C)N(c2ccc(C(=O)Nc3cc(OC(F)(F)F)c(-c4ccc(-c5c[nH]c([C@@H]6C[C@H](C)CN6C(=O)[C@H](NC(=O)OC)C(C)(C)C)n5)cc4)cc3Cl)cn2)C[C@@H]1C [Example 7-2] | A (A represents a pEC50 value between 6 and 8 (EC50 between 1 μM and 10 nM))
COC(=O)N[C@H](C(=O)N1C[C@@H](C)C[C@H]1c1nc(-c2ccc(-c3cc(F)c(NC(=O)c4ccc(N5CCN(C(=O)C6CC67CC7)C[C@H]5C)nc4)cc3Cl)cc2)c[nH]1)C(C)C (stereo partly shown) [Example 1-84] | C (C represents pEC50 between and 9 and about 10, (EC50 between 1 nM and 0.1 nM))
COC(=O)N[C@H](C(=O)N1C[C@@H](N2CCOCC2)C[C@H]1c1nc(-c2ccc(-c3cc(Cl)c(NC(=O)c4ccc(N5CCN(C(=O)[C@H]6CC6(C)C)C[C@H]5C)nc4)cc3OC(F)(F)F)cc2)c[nH]1)C(C)C [Example 15-4] | D (D represents pEC50>10 (EC50<0.1 nM))
COC(=O)N[C@H](C(=O)N1C[C@@H](O)C[C@H]1c1nc(-c2ccc(-c3cc(Cl)c(NC(=O)c4ccc(N5CCN(C(=O)C(C)(C)C)C[C@H]5C)nc4)cc3OC(F)(F)F)cc2)c[nH]1)C1CCOCC1 [Example 26-10] | A (A represents a pEC50 value between 6 and 8 (EC50 between 1 μM and 10 nM))
COC(=O)NC(C(=O)N1C[C@@H](C)C[C@H]1c1nc(-c2ccc(-c3cc(Cl)c(C(=O)Nc4ccc(N5CCN(C(=O)C(C)(C)C)C[C@H]5C)nc4)cc3OC(F)(F)F)cc2)c[nH]1)C1C[C@@H](C)O[C@@H](C)C1 (stereo partly shown) [Example 23-1] | A (A represents a pEC50 value between 6 and 8 (EC50 between 1 μM and 10 nM))
COC(=O)N[C@H](C(=O)N1C[C@@H](C)C[C@H]1c1nc(-c2ccc(-c3cc(Cl)c(NC(=O)c4ccc(N5CCN(C(=O)C(C)(C)CO)C(CO)C5)nc4)cc3OC(F)(F)F)cc2)c[nH]1)C(C)C (stereo partly shown) [Example 14-4] | B (B represents pEC50 between 8 and 9 (EC50 between 1 and 10 nM))
COC(=O)N[C@H](C(=O)N1C[C@@H](C)C[C@H]1c1nc(-c2ccc(-c3cc(Cl)c(NC(=O)c4ccc(N5C[C@H](C)N(C(=O)[C@H]6CCCN6C(=O)OC)C[C@H]5C)nc4)cc3OC(F)(F)F)cc2)c[nH]1)C(C)C [Example 1-46] | D (D represents pEC50>10 (EC50<0.1 nM))
COC(=O)N[C@H](C(=O)N1C[C@@H](C)C[C@H]1c1nc(-c2ccc(-c3ccc(C(=O)Nc4ccc(N5CCN(C(=O)[C@H]6CC6(C)C)C[C@H]5C)nc4)cc3OC(F)(F)F)cc2)c(Cl)[nH]1)C(C)C [Example 4-29] | D (D represents pEC50>10 (EC50<0.1 nM))
CNC(=O)N1CCC[C@@]1(C)C(=O)N1C[C@@H](C)N(c2ccc(NC(=O)c3ccc(-c4ccc(-c5c[nH]c([C@@H]6C[C@H](C)CN6C(=O)[C@@H](NC(=O)OC)C(C)C)n5)cc4)c(OC(F)(F)F)c3)cn2)C[C@@H]1C [Example 4-9] | D (D represents pEC50>10 (EC50<0.1 nM))

same assay, conditions: Hepatitis C virus, read-out: Genotype 1a, HCV genotype 1a replicon

Compound | EC50 [nM]
COCCO[C@H](C)[C@H](NC(=O)OC)C(=O)N1C[C@@H](C)C[C@H]1c1nc(-c2ccc(-c3cc(Cl)c(NC(=O)c4ccc(N5CCN(C(=O)C(C)(C)C)C[C@H]5C)nc4)cc3OC(F)(F)F)cc2)c[nH]1 [Example 13-9] | < 0.1
COC(=O)NC(C(=O)N1C[C@@H](C)C[C@H]1c1nc(-c2ccc(-c3cc(Cl)c(C(=O)Nc4ccc(N5CCN(C(=O)C(C)(C)C)C[C@H]5C)nc4)cc3OC(F)(F)F)cc2)c[nH]1)C1CCCCC1 (stereo partly shown) [Example 23-3] | 0.1 to 1
COC(=O)N[C@H](C(=O)N1C[C@@H](N)C[C@H]1c1nc(-c2ccc(-c3ccc(C(=O)Nc4ccc(N5CCN(C(=O)C6CC6(C)C)C[C@H]5C)nc4)cc3)cc2)c[nH]1)C(C)C (stereo partly shown) [Example 6-4] | 10 to 1000
COC(=O)N[C@H](C(=O)N1C[C@@H](OC)C[C@H]1c1nc(-c2ccc(-c3cc(Cl)c(NC(=O)c4ccc(N5CCN(C(=O)C(C)(C)CO)C[C@H]5C)nc4)cc3OC(F)(F)F)cc2)c(CO)[nH]1)C(C)C [Example 5-17] | < 0.1
COC(=O)N[C@H](C(=O)N1C[C@@H](N(C)C)C[C@H]1c1nc(-c2ccc(-c3ccc(C(=O)Nc4ccc(N5CCN(C(=O)[C@]6(C)CCCN6C(=O)[C@@H](NC(=O)OC)C(C)C)C[C@H]5C)nc4)cc3)cc2)c[nH]1)C(C)C [Example 6-3] | 0.1 to 1
COC(=O)N[C@H](C(=O)N1C[C@@H](C)C[C@H]1c1nc(-c2ccc(-c3cc(Cl)c(NC(=O)c4ccc(N5CCN(C(=O)C6CCO6)C[C@H]5C)nc4)cc3OC(F)(F)F)cc2)c[nH]1)C(C)C (stereo partly shown) [Example 12-49] | < 0.1
COCC(=O)N1CCC[C@@]1(C)C(=O)N1CCN(c2ccc(NC(=O)c3ccc(-c4ccc(-c5c[nH]c([C@@H]6CC(C)(C)CN6C(=O)[C@@H](NC(=O)OC)C(C)C)n5)cc4)c(OC(F)(F)F)c3)cn2)[C@H](C)C1 [Example 6-7] | < 0.1
COC(=O)N[C@H](C(=O)N1C[C@H](C)C[C@H]1c1nc(-c2ccc(-c3cc(Cl)c(C(=O)Nc4ccc(N5CCN(C(=O)C(C)(C)C)C[C@H]5C)nc4)cc3OC(F)(F)F)cc2)c[nH]1)C(C)C [Example 6-26] | 1 to 10
COC(=O)N[C@H](C(=O)N1C[C@@H](N2CCOCC2)C[C@H]1c1nc(-c2ccc(-c3cc(Cl)c(NC(=O)c4ccc(N5CCN(C(=O)C(C)(C)C)C[C@H]5C)nc4)cc3OC(F)(F)F)cc2)c[nH]1)C(C)C [Example 15-5] | < 0.1
COC(=O)N[C@H](C(=O)N1C[C@@H](S(C)(=O)=O)C[C@H]1c1nc(-c2ccc(-c3ccc(C(=O)Nc4ccc(N5CCN(C(=O)[C@H]6CC6(C)C)C[C@H]5C)nc4)cc3OC(F)(F)F)cc2)c[nH]1)C(C)C [Example 6-21] | 0.1 to 1
COC(=O)N[C@H](C(=O)N1C[C@@H](C)C[C@H]1c1nc(-c2ccc(-c3cc(Cl)c(NC(=O)c4ccc(N5CCN(C(=O)C(C)(C)CNS(C)(=O)=O)C[C@H]5C)nc4)cc3OC(F)(F)F)cc2)c[nH]1)C(C)C [Example 12-46] | < 0.1
COC(=O)N[C@H](C(=O)N1CC2(C[C@H]1c1nc(-c3ccc(-c4cc(Cl)c(NC(=O)c5ccc(N6CCN(C(=O)C(C)(C)C)C[C@H]6C)nc5)cc4OC(F)(F)F)cc3)c[nH]1)OCCO2)C(C)C [Example 5-11] | < 0.1
